Patent US8318792B2, “Therapeutic agent for amyotrophic lateral sclerosis” (Nippon Medical School Foundation, priority 2006, dated 2012)

Columns and labels:
[1] = system: neurotoxin in cerebrospinal fluid from ALS patients; details: in vitro; Non-Patent Document 3; cited from earlier work
[2] = system: transgenic mouse which expresses human mutated SOD1 gene; details: Non-Patent Document 9, cited from earlier work
G1H-G93A transgenic mice = assay: Clinical symptomatological evaluation (day of onset, survival period, disease period, stage periods); assay type: in vivo, mouse
Description: 1) The procedure of concentration adjustment, and the amount and the procedure of administration of the compound (a) were as described below. As a base, 0.5% methylcellulose is prepared. 5 mg of the compound (a) is pulverized in an agate mortar, and then a small amount of 0.5% methylcellulose is added to form a complete suspension. Subsequently, a small amount of 0.5% methylcellulose is added gradually, so that finally 5 mg of the compound (a) is suspended in 10 mL of 0.5% methylcellulose. A sample of 5 mg of compound (a)/10 mL of 0.5% methylcellulose (5 mg/10 mL) was prepared by the above-described procedure, and thus the compound (a) was orally administered once a day in a dose of 5 mg per kg of the mouse body weight (5 mg/kg).
As the experimental animal, male transgenic mice over-expressing a high copy number (25 copies) of mutated human SOD1 gene with a G93A point mutation, i.e., B6SJL-TgN [SOD1-G93A]1Gur (G1H-G93A transgenic mice, JR2726; Hemizygote) (Gurney M E, et al., Science, 264, 1772-1775, 1994), were purchased from Jackson Laboratory (Bar Harbor, USA) and used. At the same time, wild-type male mice from the same litter, B6SJL-TgN[SOD1-G93A]1Gur (Wild-type), were also purchased from Jackson Laboratory and used.
The mice were subjected to a clinical symptomatological evaluation everyday. The clinical symptomatological evaluation was performed from one week after the arrival from Jackson Laboratory. […] The day of onset, the survival period and the disease period were indicated by the number of days. In regard to the indication of the number of days of the disease period, one day (one disease day) corresponds to within 24 hours from the onset (the “onset” is determined by the observation of the clinical symptomatological evaluation stage 1), and two days (two disease days) corresponds to more than 24 hours after and within 48 hours from the onset. Subsequent disease days after the onset were determined in the same manner.
The mice were divided into seven experimental groups, to which a placebo, the compound (a), compound (b), compound (c) or allopurinol was administered. That is, the seven groups consist of: an experimental group administered with placebo; a treatment experimental group administered with compound (a) before onset; a treatment experimental group administered with compound (a) after onset; a treatment experimental group administered with compound (b) before onset; a treatment experimental group administered with compound (c) before onset; a treatment experimental group administered with compound (c) after onset; and a treatment group administered with allopurinol before onset. Details of the respective groups will be described in the following.
Ten G1H-G93A transgenic mice were used. From the 80th day after birth, 5 mg/kg of the compound (a) was orally administered everyday. […]
Ten G1H-G93A transgenic mice were used. From the 80th day after birth, 5 mg/kg of the compound (b) was orally administered everyday.
Ten G1H-G93A transgenic mice were used. From the 80th day after birth, 5 mg/kg of the compound (c) was orally administered everyday. […]
Ten G1H-G93A transgenic mice were used. From the 80th day after birth, 5 mg/kg of allopurinol was orally administered everyday.
In regard to the results of the clinical symptomatological evaluation, the day of onset, the survival period (days taken to show quadriplegia and to reach the moribund state), the disease period (days taken to show quadriplegia and to reach the moribund state, from the day of onset), and the time periods for the respective stages of the clinical symptomatological evaluation, were indicated by the average±standard deviation. In regard to the results of the exercise tolerance test, the score values of the respective exercise tolerance tests, including the extension reflex test, inclined plane test, footprint test, rotarod test and beam balance test, were indicated by the average±standard deviation. […]

[3] = 5 mg/kg oral daily from 80th day after birth (before onset), Mann-Whitney's U test, log-rank test
[4] = 5 mg/kg oral once a day from 80th day after birth (before onset), average±SD

Molecule | action on the neurotoxin in cerebrospinal fluid from ALS patients [1] | effect on life span in the transgenic mouse [2] | ALS treating effect ([2]; intraperitoneal administration in an amount of 10 mg/kg) | time periods for the respective stages in comparison to placebo group (G1H-G93A transgenic mice; 5 mg/kg oral daily from 80th day after birth (before onset), Mann-Whitney's U test) | disease period extending effect in comparison to placebo group (G1H-G93A transgenic mice; [3]) | onset delaying effect in comparison to placebo group (G1H-G93A transgenic mice; [3]) | survival period extending effect in comparison to placebo group (G1H-G93A transgenic mice; [3]) | day of onset (G1H-G93A transgenic mice; [4]) | disease period (G1H-G93A transgenic mice; [4]) | survival period (G1H-G93A transgenic mice; [4]) | time period of clinical symptomatological stage 1 (G1H-G93A transgenic mice; [4]) | time period of clinical symptomatological stage 2 (G1H-G93A transgenic mice; [4]) | time period of clinical symptomatological stage 3 (G1H-G93A transgenic mice; [4]) | time period of clinical symptomatological stage 4 (G1H-G93A transgenic mice; [4]) | time period of clinical symptomatological stage 5 (G1H-G93A transgenic mice; [4])
vitamin E | counteract the neurotoxin |  |  |  |  |  |  |  |  |  |  |  |  |  | 
[O-][n+]1cccc(/C(Cl)=N/OC[C@H](O)CN2CCCCC2)c1 [arimoclomol] |  | prolongation of life | effective |  |  |  |  |  |  |  |  |  |  |  | 
Oc1ncnc2[nH]ncc12 [allopurinol, reference compound] | counteract the neurotoxin |  |  | not found to have the extended period of respective stages with significant differences | did not lead to the onset delaying effect, survival period extending effect or disease period extending effect | did not result in significant delaying of the day of onset | did not lead to the onset delaying effect, survival period extending effect or disease period extending effect | 102.2 ± 4.4 days | 21.0 ± 3.6 days | 122.2 ± 1.3 days | 6.8±1.1 days | 5.4±1.3 days | 4.4±1.2 days | 2.9±0.7 days | 1.5±0.5 days
